Twelve compounds from ChEMBL document CHEMBL1141139 (J Med Chem, 2005) can be followed below.

A short description of data set [1]: Lethal dose against rodents; Range = 1200-10e4 nmol/kg. The class given is toxicity. The following applies: rodentia.
Data set [2] has as its target T1, Neuronal acetylcholine receptor; alpha3/beta4 (Rattus norvegicus, UniProt P04757+P12392). The experiment in a line: Effective concentration against alpha3-beta4 nicotinic acetylcholine receptor (nAChR) expressed in IMR32 cell. The class given is cell-based, IMR-32.
Data set [3] deals with Neuronal acetylcholine receptor; alpha4/beta2 (Rattus norvegicus, UniProt P09483+P12390). Put plainly: Displacement of [3H]-cytisine from Alpha4-beta2 Nicotinic acetylcholine receptor of rat brain homogenates. Format: tissue-based.
Chain of Neuronal acetylcholine receptor; alpha4/beta2 (P09483 whole entry): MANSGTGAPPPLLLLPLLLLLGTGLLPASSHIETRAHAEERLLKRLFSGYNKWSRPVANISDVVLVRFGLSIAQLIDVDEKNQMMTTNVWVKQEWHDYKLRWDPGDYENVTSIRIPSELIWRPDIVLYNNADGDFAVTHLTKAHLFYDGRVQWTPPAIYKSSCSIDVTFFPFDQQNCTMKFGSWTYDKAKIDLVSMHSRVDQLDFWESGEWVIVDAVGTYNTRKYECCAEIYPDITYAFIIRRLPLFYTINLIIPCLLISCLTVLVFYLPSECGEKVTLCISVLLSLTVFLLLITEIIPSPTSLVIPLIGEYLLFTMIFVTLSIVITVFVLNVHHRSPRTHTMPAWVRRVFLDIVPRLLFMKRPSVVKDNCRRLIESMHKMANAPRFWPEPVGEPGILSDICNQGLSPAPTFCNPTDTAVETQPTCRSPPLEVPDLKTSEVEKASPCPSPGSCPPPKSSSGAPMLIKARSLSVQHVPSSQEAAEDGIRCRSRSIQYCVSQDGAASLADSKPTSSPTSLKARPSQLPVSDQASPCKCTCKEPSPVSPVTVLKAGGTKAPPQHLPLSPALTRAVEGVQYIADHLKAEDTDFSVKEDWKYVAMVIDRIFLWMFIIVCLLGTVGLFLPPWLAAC
Chain of Neuronal acetylcholine receptor; alpha4/beta2 (P12390 whole entry): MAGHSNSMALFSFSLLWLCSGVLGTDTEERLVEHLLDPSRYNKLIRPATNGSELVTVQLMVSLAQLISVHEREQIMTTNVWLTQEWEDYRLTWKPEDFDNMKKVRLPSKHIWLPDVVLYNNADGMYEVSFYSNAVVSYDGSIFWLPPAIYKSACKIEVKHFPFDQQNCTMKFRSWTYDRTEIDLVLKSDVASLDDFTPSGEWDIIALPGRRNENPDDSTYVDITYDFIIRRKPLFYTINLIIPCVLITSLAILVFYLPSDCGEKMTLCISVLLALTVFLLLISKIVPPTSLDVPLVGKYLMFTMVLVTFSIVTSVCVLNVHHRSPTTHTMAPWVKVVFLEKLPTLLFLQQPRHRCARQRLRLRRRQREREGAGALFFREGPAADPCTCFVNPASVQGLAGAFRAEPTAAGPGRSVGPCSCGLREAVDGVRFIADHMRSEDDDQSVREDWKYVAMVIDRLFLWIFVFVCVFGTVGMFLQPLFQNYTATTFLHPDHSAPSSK
Data set [4] concerns the target T1, Neuronal acetylcholine receptor; alpha3/beta4. The experiment in a line: Displacement of [3H]epibatidine from Alpha3 Beta4 Nicotinic acetylcholine receptor of rat brain homogenates. Background: Loss of bound radioactivity is the signal in a displacement assay; it reports binding, not function.
Data set [5] can be described thus: Lethal dose against rodents; Range = 1200-10e4. Format: toxicity. Conditions: rodentia.
A short description of data set [6]: Lethal dose against rodents. Format: toxicity. The following applies: rodentia.
The nature of data set [7]: Lethal dose against rodents; Range = 12-120 nmol/kg. Format: toxicity. Conditions: rodentia, in vivo.
Data set [8] deals with T1, Neuronal acetylcholine receptor; alpha3/beta4. Put plainly: Effective concentration against alpha3-beta4 nicotinic acetylcholine receptor (nAChR) expressed in Xenopus oocytes. Format: cell-based, Oocyte.
Data set [9] can be described thus: Lethal dose against rodents; Range = 7-67 nmol/kg. Format: toxicity. The following applies: rodentia, in vivo.
Data set [10] is described as follows: Lethal dose against rodents; Range = 1.37e5 nmol/kg. Format: toxicity. The following applies: rodentia.
In data set [11] the target is T1, Neuronal acetylcholine receptor; alpha3/beta4. The experiment in a line: Effective concentration against alpha3-beta4 Nicotinic acetylcholine receptor (nAChR). Format: protein-complex assay.
Data set [12] can be described thus: Lethal dose against rodents; Range = 1.38e7 nmol/kg. The class given is toxicity. Conditions: rodentia.

The structures appear in SMILES notation.

T1 sequence (P04757 whole entry): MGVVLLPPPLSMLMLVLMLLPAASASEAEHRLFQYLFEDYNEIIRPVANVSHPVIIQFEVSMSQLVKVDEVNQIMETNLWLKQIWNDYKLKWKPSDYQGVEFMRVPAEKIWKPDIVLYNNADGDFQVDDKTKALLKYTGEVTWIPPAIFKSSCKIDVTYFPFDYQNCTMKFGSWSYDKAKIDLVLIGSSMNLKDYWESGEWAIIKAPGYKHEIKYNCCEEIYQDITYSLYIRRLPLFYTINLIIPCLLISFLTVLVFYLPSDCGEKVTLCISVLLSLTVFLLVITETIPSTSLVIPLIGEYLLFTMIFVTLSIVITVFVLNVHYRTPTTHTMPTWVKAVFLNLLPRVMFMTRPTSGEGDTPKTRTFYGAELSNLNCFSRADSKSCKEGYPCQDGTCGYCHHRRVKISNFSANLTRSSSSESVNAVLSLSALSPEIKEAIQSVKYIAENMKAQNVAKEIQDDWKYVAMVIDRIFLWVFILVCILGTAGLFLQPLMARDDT
T1 sequence (P12392 whole entry): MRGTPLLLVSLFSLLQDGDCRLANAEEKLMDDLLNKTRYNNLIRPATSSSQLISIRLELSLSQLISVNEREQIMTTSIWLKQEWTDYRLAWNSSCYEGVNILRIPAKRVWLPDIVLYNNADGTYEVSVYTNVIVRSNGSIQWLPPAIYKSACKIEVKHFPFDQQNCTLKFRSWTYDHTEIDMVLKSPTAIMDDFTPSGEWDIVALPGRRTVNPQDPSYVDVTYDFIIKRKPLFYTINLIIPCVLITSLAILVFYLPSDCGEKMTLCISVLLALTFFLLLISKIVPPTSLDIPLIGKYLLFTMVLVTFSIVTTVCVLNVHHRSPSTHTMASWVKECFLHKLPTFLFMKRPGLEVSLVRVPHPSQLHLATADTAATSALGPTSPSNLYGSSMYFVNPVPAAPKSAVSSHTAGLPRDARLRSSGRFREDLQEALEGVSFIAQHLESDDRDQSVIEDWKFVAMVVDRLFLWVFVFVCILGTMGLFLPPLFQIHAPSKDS

As for `CN1CCCC1COc1cccnc1` (configuration not stated), the LD50 (as a rule, the dose expected to kill half of the subjects tested) in data set [1] amounted to 100 µmol/kg. Besides, in data set [2], it took 63000 nM to reach a half-maximal effect (EC50). Also, the Ki (as a rule, the dissociation constant of the complex between target and ligand, obtained from inhibition or displacement) in data set [3] was determined as 0.15 nM.

Turning to `c1cncc(OCC2CCN2)c1` (configuration not stated), the Ki stood at 73.6 nM in [4] and 0.05 nM in data set [3]. The same compound had an LD50 in data set [5] of 100 µmol/kg.

Compound `CN1CCCC1COc1ccc(Cl)nn1` (configuration not stated) had a Ki in [3] of 29 nM.

`CN1CCCC1COc1cnccn1` (configuration not stated) showed a Ki in data set [3] of 16.3 nM.

Turning to `CN1CCCC1COc1ccccn1` (configuration not stated), the affinity in data set [3], expressed as Ki, was 495 nM. Compared with the last compound, the Ki is about 30-fold higher.

`CN1C2C=C(c3cccnc3)CC1CC2` (configuration not stated) showed an LD50 in data set [6] of 0.25 µmol/kg.

In the case of `c1cncc(C2CC3CCC2N3)c1` (single isomer, unassigned; (+)) [DESCHLOROEPIBATIDINE], the LD50 in data set [7] (read-out: LD50) turned out to be 0.12 µmol/kg. In addition, the EC50 (in general, the midpoint of the concentration-response curve) in data set [8] amounted to 510 nM. Affinity in [3] was put at a Ki of 0.064 nM.

On to `c1cncc(C2CC3CCC2N3)c1` (single isomer, unassigned; (-)) [DESCHLOROEPIBATIDINE], for which, in [7], the LD50 stood at 0.12 µmol/kg. This compound also registered an EC50 in data set [8] of 250 nM. Moreover, in [3], the Ki is 0.015 nM.

In the case of `Clc1ccc([C@@H]2C[C@H]3CC[C@@H]2N3)cn1` [(+)-EPIBATIDINE], the LD50 in [9] worked out at 0.067 µmol/kg.

`Cc1cc([C@@H]2CCCN2C)on1` [ABT-418] came in with an LD50 in [10] of 137 µmol/kg. The EC50 in data set [11] came to 209000 nM. This compound returned a Ki in data set [3] of 4 nM.

In turn, `CC(=O)OCC[N+](C)(C)C` [ACETYLCHOLINE] registered an LD50 in data set [12] of 13800 µmol/kg.

Consider `Clc1ccc(C2CC3CCC2N3)cn1` (configuration not stated) [EPIBATIDINE], for which the LD50 in [9] worked out at 0.067 µmol/kg.
